Reference: patent US7901681B2, “Trypanosome derived apoptotic factors (TAF)” (priority 2003, dated 2011)

Assays:
HBVEC = experiment: TUNEL assay, dose response of apoptosis in HBVEC; type: cell-based, human
Description: RBVEC Cell line: Human Brain Macrovascular Endothelial Cells (HBVEC) were obtained from Biowhittaker (Walkersville, Md.). They were grown in media made as per the instructions in the Complete Medium Kit (Cell Systems Corporation, Kirkland, Wash.). Briefly, 500 ml of Complete Medium was added to 10 ml of Attachment Factor (Cell Systems Corporation, Kirkland, Wash.). The medium is a liquid medium containing 10% serum and CSC Growth factor. Cell stocks were maintained in T25 flasks at 37° C. in a 5% CO2 incubator, and were harvested and passed at about 60-80% confluence. Experiments were performed on cells plated and grown for 24 to 48 hours on collagen-coated coverslips in 35 mm tissue culture dishes.
Terminal deoxynucleotidyl transferase dUTP nick-end labeling (TUNEL) assay. […] Cells on cover slips were washed with PBS, and fixed for 30 minutes at RT with 4% paraformaldehyde, in PBS, pH 7.4. […] Total cell counts were determined by counterstaining fixed cultures with 20:g/ml of Hoechst 33258. […]
Dose Response. The effect of Trypanosome conditioned serum containing medium-induced apoptosis was determined in HBVEC. […] Total cells, and fluorescent cells were counted for each field examined (10 fields per plate minimum). The percentage of TUNEL-labeled cells was calculated as the number of FITC-stained cells divided by the total number.of cells. […]

mouse cerebellum = experiment: Mouse cerebellum apoptosis analysis (TUNEL of brain sections); type: in vivo, Balb/c mice; details: similar to that induced by T. brucei
Description: Murine African trypanosomiasis model. All animal-related procedures were carried out in strict accordance with the National Institutes of Health Guide for the Care and Use of Laboratory Animals and approved by the Morehouse School of Medicine's Animal Care and Use Committee. Male Balb/c mice (6-8 weeks of age) were maintained on a 12-hour-light/12-hour-dark cycle with access to food and water ad libitum. Mice were injected intra-peritoneally with parasitized blood (T. brucei L427) and groups of 10 were then sacrificed on days 0, 4, 6 and 8 post-infection (P.I.). Equal numbers of mice were sham-injected (with uninfected blood) as controls. All experiments were repeated twice at different times to ensure that the data were representative of each group, and took into account the potential individual-host variation in trypanosome-induced global gene expression. This murine trypanosomiasis model mimics the major clinical symptoms of HAT, with the infected mice developing fever, tremors, lethargy, weight loss, dyskinesia, convulsions, altered gait, and death by day 10 post injection (P.I.).
Mouse cerebellum and apoptosis analysis. […] The level of apoptosis visible in brain sections was determined semi-quantitatively as the mean numbers of TUNEL-positive (i.e. apoptotic) cells/cm^2 in 20 comparative fields of brain sections from infected and uninfected mice.

Question: Which “induction of apoptosis in HBVEC” value (HBVEC) does the source give for “AEGPEDKGLTKGGKGKGEKETKVQDEV (listed as Trypanosoma brucei) [ProEP2-1]” here?
Answer: induce apoptosis

Question: What about the “dose dependence of TUNEL labeling of HBVEC” value (HBVEC; 24 hours) of the same sequence?
Answer: dose dependent

Question: And the “induction of apoptosis in cerebella of mice” value (mouse cerebellum)?
Answer: induce apoptosis
